{"source": "paper PMC5377415", "about": "“Thermo‐kinetic analysis space expansion for cyclophilin‐ligand interactions – identification of a new nonpeptide inhibitor using Biacore™ T200” (FEBS Open Bio, 2017)", "target": "T1, His-tagged human cyclophilin-A (His-CypA) (Homo sapiens, UniProt P62937)", "T1 construct": "gene PPIA; full length M1-E165, codon-optimised, E. coli C41", "T1 sequence (P62937 whole entry)": "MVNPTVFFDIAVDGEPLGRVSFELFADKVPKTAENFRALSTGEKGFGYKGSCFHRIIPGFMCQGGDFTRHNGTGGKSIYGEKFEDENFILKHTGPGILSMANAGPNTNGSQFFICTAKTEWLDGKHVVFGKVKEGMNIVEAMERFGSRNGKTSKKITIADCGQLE", "assay": "SPR (Biacore T200), […] Langmuir fit, captured and stabilised His-CypA", "assay_type": "binding"}
{"compound": "Nc1cccnc1N", "note": "[2,3-diaminopyridine]", "values": [{"measurement": "Kd", "result": "248 ± 60", "unit": "µM"}]}
